We go through twelve compounds from patent publication US20150291514A1, “N-Aminosulfonyl Benzamides” (Pfizer Limited, priority 2012, published 2015).

Each structure is given as a SMILES string. Structures can show the parent of a compound that is named as a salt.

T1 sequence (Q15858 whole entry): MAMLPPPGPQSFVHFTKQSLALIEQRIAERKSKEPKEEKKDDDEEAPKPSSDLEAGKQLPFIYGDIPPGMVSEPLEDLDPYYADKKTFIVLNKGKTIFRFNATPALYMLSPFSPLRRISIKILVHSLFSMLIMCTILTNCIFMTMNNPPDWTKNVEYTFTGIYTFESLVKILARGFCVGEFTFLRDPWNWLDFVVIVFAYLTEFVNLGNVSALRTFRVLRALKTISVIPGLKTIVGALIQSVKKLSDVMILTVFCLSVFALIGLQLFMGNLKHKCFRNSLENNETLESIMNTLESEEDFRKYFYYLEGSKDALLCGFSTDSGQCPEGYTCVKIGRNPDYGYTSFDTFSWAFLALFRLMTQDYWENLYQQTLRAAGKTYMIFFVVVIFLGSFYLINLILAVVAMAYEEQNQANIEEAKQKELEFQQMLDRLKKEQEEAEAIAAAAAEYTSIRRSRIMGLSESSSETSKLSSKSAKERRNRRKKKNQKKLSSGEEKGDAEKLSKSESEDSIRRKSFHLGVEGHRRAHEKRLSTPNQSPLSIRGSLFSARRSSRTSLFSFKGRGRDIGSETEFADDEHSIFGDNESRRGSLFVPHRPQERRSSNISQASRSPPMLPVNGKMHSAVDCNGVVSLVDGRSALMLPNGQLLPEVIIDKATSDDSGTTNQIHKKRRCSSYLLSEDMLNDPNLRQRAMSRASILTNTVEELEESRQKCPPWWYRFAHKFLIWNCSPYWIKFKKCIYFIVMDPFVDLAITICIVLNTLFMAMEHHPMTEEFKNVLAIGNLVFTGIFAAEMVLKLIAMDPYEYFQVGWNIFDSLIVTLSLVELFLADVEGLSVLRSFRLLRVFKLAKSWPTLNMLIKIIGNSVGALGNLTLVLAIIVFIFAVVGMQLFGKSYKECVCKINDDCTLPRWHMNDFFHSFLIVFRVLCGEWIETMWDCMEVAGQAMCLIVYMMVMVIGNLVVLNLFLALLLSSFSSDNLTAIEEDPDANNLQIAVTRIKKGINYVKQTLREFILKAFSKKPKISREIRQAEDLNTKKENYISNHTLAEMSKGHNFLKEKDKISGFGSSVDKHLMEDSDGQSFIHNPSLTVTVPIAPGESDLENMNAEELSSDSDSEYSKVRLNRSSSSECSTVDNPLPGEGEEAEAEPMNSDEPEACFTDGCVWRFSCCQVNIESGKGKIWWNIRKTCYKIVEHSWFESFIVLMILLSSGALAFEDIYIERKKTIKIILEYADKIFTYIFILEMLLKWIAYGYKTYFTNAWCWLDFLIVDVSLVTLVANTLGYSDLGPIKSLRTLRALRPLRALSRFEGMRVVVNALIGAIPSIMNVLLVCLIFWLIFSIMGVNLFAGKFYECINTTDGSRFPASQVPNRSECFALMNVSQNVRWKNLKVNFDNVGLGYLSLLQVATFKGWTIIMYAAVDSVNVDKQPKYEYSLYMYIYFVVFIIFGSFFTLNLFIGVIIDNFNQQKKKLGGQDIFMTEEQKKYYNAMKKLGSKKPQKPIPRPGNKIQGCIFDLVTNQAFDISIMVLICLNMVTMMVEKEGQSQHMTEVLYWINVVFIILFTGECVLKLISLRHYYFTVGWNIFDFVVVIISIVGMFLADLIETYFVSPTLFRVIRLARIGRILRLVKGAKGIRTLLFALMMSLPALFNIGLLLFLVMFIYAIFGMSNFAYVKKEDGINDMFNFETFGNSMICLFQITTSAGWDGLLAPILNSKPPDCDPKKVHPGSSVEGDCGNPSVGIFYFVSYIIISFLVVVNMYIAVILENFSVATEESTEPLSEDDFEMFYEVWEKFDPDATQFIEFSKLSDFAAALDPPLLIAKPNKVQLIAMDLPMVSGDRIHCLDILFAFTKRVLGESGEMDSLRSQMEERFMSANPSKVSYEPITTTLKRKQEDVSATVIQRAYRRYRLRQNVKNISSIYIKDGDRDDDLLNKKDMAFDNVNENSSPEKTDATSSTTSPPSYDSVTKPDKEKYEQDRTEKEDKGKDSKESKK

This test has as its target T1, Nav1.7 (or SCN9A) channel (Homo sapiens, UniProt Q15858).
T1 construct: expressed in transfected cells
The test is described as follows: Nav1.7 (hSCN9A) PatchXpress electrophysiology assay. It counts as cell-based. As to conditions: estimated IC50 from single point electrophysiology data; PatchXpress platform; HEK cells expressing hSCN9A, held at V1/2 of inactivation; read-out: Nav1.7 EIC50. The method, then: The ability of the compounds of formula (I) to block the Nav1.7 (or SCN9A) channel were measured using the assay described below.
Human Embryonic Kidney (HEK) cells were transfected with an hSCN9A construct using lipofectamine reagent (Invitrogen), using standard techniques. Cells stably expressing the hSCN9A constructs were identified by their resistance to G-418 (400 μg/ml). Clones were screened for expression using the whole-cell voltage-clamp technique.
HEK cells stably transfected with hSCN9A were maintained in DMEM medium supplemented with 10% heat-inactivated fetal bovine serum and 400 μg/ml G-418 in an incubator at 37° C. with a humidified atmosphere of 10% CO2. For HTS, cells were harvested from flasks by trypsinization and replated in an appropriate multi-well plate (typically 96 or 384 wells/plate) such that confluence would be achieved within 24 hours of plating. For electrophysiological studies, cells were removed from the culture flask by brief trypsinization and re-plated at low density onto glass cover slips. Cells were typically used for electrophysiological experiments within 24 to 72 hours after plating.
Cover slips containing HEK cells expressing hSCN9A were placed in a bath on the stage of an inverted microscope and perfused (approximately 1 ml/minutes) with extracellular solution of the following composition: 138 mM NaCl, 2 mM CaCl2, 5.4 mM KCl, 1mM MgCl2, 10 mM glucose, and 10 mM HEPES, pH 7.4, with NaOH. […] The osmolarity of the extracellular and intracellular solutions was 300 mOsm/kg and 295 mOsm/kg, respectively. All recordings were made at room temperature (22-24° C.) using AXOPATCH 200B amplifiers and PCLAMP software (Axon Instruments, Burlingame, Calif.).
hSCN9A currents in HEK cells were measured using the whole-cell configuration of the patch-clamp technique (Hamill et al., 1981). Uncompensated series resistance was typically 2 to 5 mega ohms and >85% series resistance compensation was routinely achieved. As a result, voltage errors were negligible and no correction was applied. Current records were acquired at 20 to 50 KHz and filtered at 5 to 10 KHz.
HEK cells stably transfected with hSCN9A were viewed under Hoffman contrast optics and placed in front of an array of flow pipes emitting either control or compound-containing extracellular solutions. All compounds were dissolved in dimethyl sulfoxide to make 10 mM stock solutions, which were then diluted into extracellular solution to attain the final concentrations desired. […] The voltage-dependence of inactivation was determined by applying a series of depolarizing prepulses (8 sec long in 10 mV increments) from a negative holding potential. The voltage was then immediately stepped to 0 mV to assess the magnitude of the sodium current. Currents elicited at 0 mV were plotted as a function of prepulse potential to allow estimation of the voltage at which 50% of the channels were inactivated (midpoint of inactivation or V1/2). Compounds were tested for their ability to inhibit hSCN9A sodium channels by activating the channel with a 20 msec voltage step to 0 mV following an 8 second conditioning prepulse to the empirically determined V1/2. Compound effect (% inhibition) was determined by difference in current amplitude before and after application of test compounds. For ease of comparison, “estimated IC-50” (EIC50) values were calculated from single point electrophysiology data by the following equation, (tested concentration, uM)×(100-% inhibition/% inhibition). Inhibition values <20% and >80% were excluded from the calculation.
Electrophysiological assays were conducted with PatchXpress 7000 hardware and associated software (Molecular Devices Corp). All assay buffers and solutions were identical to those used in conventional whole-cell voltage clamp experiments described above. hSCN9A cells were grown as above to 50%-80% confluency and harvested by trypsinization. […]
As to `C[C@@H]1CCCN1c1ncc(Oc2cc(F)c(C(=O)NS(=O)(=O)N(C)C)cc2F)cc1Cl` [Example 29, 4-({5-chloro-6-[(2R)-2-methylpyrrolidin-1-yl]pyridine-3-yl}oxy)-N-[(dimethylamino)sulfonyl]-2,5-dfluorobenzamide formate salt], the IC50 was 240 nM.
In the case of `CC(C)Oc1ncc(Oc2cc(F)c(C(=O)NS(=O)(=O)N(C)C)cc2F)cc1Cl` [Example 30, 4-[(5-chloro-6-isopropoxypyridin-3-yl)oxy]-N-[(dimethylamino)sulfonyl]-2,5-difluorobenzamide] it was 470 nM; in that of `CNS(=O)(=O)NC(=O)c1cc(F)c(Oc2cnc(OC(C)C)c(Cl)c2)cc1F` [Example 31, 4-[(5-chloro-6-isopropoxypyridin-3-yl)oxy]-N-[(methylamino)sulfonyl]-2,5-difluorobenzamide], 6600 nM.
As for `CN(C)S(=O)(=O)NC(=O)c1cc(F)c(Oc2cnc(OCC3CC3)c(Cl)c2)cc1F` [Example 32, 4-[(5-chloro-6-(cyclopropylmethoxy)pyridin-3-yl)oxy]-N-[(dimethylamino)sulfonyl]-2,5-difluorobenzamide], the figure is 290 nM; as for `CN(C)S(=O)(=O)NC(=O)c1cc(F)c(Oc2cnc(OCC(C)(C)F)c(Cl)c2)cc1F` [Example 33, 4-[(5-chloro-6-(2-fluoro-2-methylpropoxy)pyridin-3-yl)oxy]-N-[(dimethylamino)sulfonyl]-2,5-difluorobenzamide diethylamine salt], 500 nM; as for `CN(C)S(=O)(=O)NC(=O)c1cc(F)c(Oc2cnc(OCC(F)(F)F)c(Cl)c2)cc1F` [Example 34, 4-[(5-chloro-6-(2,2,2-trifluoroethoxy)pyridin-3-yl)oxy]-N-[(dimethylamino)sulfonyl]-2,5-difluorobenzamide diethylamine salt], 590 nM.
In the case of `CN(C)S(=O)(=O)NC(=O)c1cc(F)c(Oc2cc(C(F)(F)F)c(Cl)cn2)cc1F` [Example 35, 4-((5-chloro-4-(trifluoromethyl)pyridin-2-yl)oxy)-N-(N,N-dimethylsulfamoyl)-2,5-difluorobenzamide] it was 2500 nM; in that of `CC(Oc1ncc(Oc2cc(F)c(C(=O)NS(=O)(=O)N(C)C)cc2F)cc1Cl)C(F)(F)F` (stereo not drawn) [Example 36, 4-((5-chloro-6-((1,1,1-trifluoropropan-2-yl)oxy)pyridin-3-yl)oxy)-N-[(dimethylamino)sulfonyl]-2,5-difluorobenzamide], 660 nM.
As to `CN(C)S(=O)(=O)NC(=O)c1cc(F)c(Oc2cnc(OC(C(F)(F)F)C(F)(F)F)c(Cl)c2)cc1F` [Example 37], the IC50 was 470 nM.
In the case of `CC(C)Oc1ncc(Oc2cc(F)c(C(=O)NS(=O)(=O)N3CCC3)cc2F)cc1Cl` [Example 38, N-(azetidin-1-ylsulfonyl)-4-(5-chloro-6-isopropoxypyridin-3-yl)oxy)-2,5-difluorobenzamide diethylamine salt], the IC50 was 180 nM.
In the case of `O=C(NS(=O)(=O)N1CCC1)c1cc(Cl)c(Oc2cnc(OCC(F)(F)C(F)F)c(Cl)c2)cc1F` [Example 41, N-(azetidin-1-ylsulfonyl)-5-chloro-4-{[5-chloro-6-(2,2,3,3-tetrafluoropropoxy)pyridin-3-yl]oxy}-2-fluorobenzamide] it was 100 nM; in that of `O=C(NS(=O)(=O)N1CCC1)c1cc(Cl)c(Oc2ccc(Cl)c(Cl)c2)cc1F` [Example 42, N-(azetidin-1-ylsulfonyl)-5-chloro-4-(3,4-dichlorophenoxy)-2-fluorobenzamide], 100 nM.
